According to US20080280879A1, “SUBSTITUTED HETEROCYCLIC DERIVATIVES AND THEIR PHARMACEUTICAL USE AND COMPOSITIONS” (priority 2007, published 2008):
≈ marks a conversion by molar mass, not a printed value.

Assays:
Format in all cases: cell-based, Staphylococcus aureus
Staph aureus 1146 [1] = test: MIC, microtiter broth dilution (CLSI M7-A7), Assay 1, Table 12 column B, no serum; conditions: for MIC: Staphylococcus aureus, 1146, Staph aureus 1146, Assay 1, no serum; for MIC, column B: Staph aureus 1146, Assay 1, no serum
Method in brief: (§1)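 Broth microdilution in microtiter trays per CLSI M7-A7, interpreted per M100-S16; MIC (μg/ml) is the lowest concentration preventing visible growth. Serum condition used Mueller-Hinton Broth with 50% pooled inactivated human serum. Repeated runs reported as geometric mean.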

Staph aureus 1095 MRSA = test: MIC, microtiter broth dilution (CLSI M7-A7), Assay 1, Table 12 column A, no serum; conditions: Assay 1, no serum; for MIC: Staphylococcus aureus, MRSA
Method in brief: as §1

Staph aureus 1146 [2] = test: MIC in Mueller-Hinton Broth with 50% pooled inactivated human serum, Assay 1, Table 12; conditions: for MIC: Staphylococcus aureus, 1146, Staph aureus 1146, Assay 1, 50% human serum, read-out: MIC, column C; for MIC, column C: Staph aureus 1146, Assay 1, 50% human serum
Method in brief: as §1

Staph aureus 2812 = test: MIC, microtiter broth dilution (CLSI M7-A7), Assay 1, Table 12 column E, no serum; conditions: for MIC: Staphylococcus aureus, 2812, Staph aureus 2812, Assay 1, no serum; for MIC, column E: Staph aureus 2812, Assay 1, no serum
Method in brief: as §1

Staph aureus 2811 = test: MIC, microtiter broth dilution (CLSI M7-A7), Assay 1, Table 12 column D, no serum; conditions: for MIC: Staphylococcus aureus, 2811, Staph aureus 2811, Assay 1, no serum; for MIC, column D: Staph aureus 2811, Assay 1, no serum
Method in brief: as §1

MIC (Staph aureus 1146 [1]) | MIC (Staph aureus 1095 MRSA) | MIC (Staph aureus 1146 [2]) | MIC (Staph aureus 2812) | MIC (Staph aureus 2811) | MIC, column B (Staph aureus 1146 [1]) | MIC, column A (Staph aureus 1095 MRSA) | MIC, column C (Staph aureus 1146 [2]) | MIC, column E (Staph aureus 2812) | MIC, column D (Staph aureus 2811) | SMILES
< 0.0625 µg/mL | < 0.0625 µg/mL | 2 µg/mL (≈ 3.78 µM) | < 0.0625 µg/mL | < 0.0625 µg/mL |  |  |  |  |  | COc1ccc2ncc(F)c(C(O)CC[C@@H]3CCN(C4CC(c5cc(F)ccc5F)C4)C[C@@H]3C(=O)O)c2n1 (stereo partly drawn) [Example 205, (3R,4R)-1-[3-(2,5-difluorophenyl)cyclobutyl]-4-[3-(3-fluoro-6-methoxy-1,5-naphthyridin-4-yl)-3-hydroxypropyl]piperidine-3-carboxylic acid]
< 0.0625 µg/mL | < 0.0625 µg/mL | 64 µg/mL (≈ 124 µM) | < 0.0625 µg/mL | < 0.0625 µg/mL |  |  |  |  |  | COc1ccc2ncc(Cl)c(CCCC3(C(=O)O)CCN(C4CC(c5cc(F)ccc5F)C4)C3)c2c1 (stereo not drawn) [Example 207, 3-[3-(3-chloro-6-methoxyquinolin-4-yl)propyl]-1-[3-(2,5-difluorophenyl)cyclobutyl] pyrrolidine-3-carboxylic acid]
 |  |  |  |  | <0.0625 µg/mL | <0.0625 µg/mL | 1.00 µg/mL (≈ 1.83 µM) | <0.0625 µg/mL | <0.0625 µg/mL | COc1ccc2ncc(Cl)c(C(O)CC[C@@H]3CCN(C4CC(c5cc(F)ccc5F)C4)C[C@@H]3C(=O)O)c2c1 (stereo partly drawn) [Example 209, (3R,4R)-4-[3-(3-chloro-6-methoxyquinolin-4-yl)-3-hydroxypropyl]-1-[3-(2,5-difluorophenyl)cyclobutyl]piperidine-3-carboxylic acid]
 |  |  |  |  | <0.0625 µg/mL | <0.0625 µg/mL | 16.0 µg/mL (≈ 29.4 µM) | <0.0625 µg/mL | <0.0625 µg/mL | COc1ccc2ncc(Cl)c(C(O)CC[C@@H]3CCN(C4CC(c5cc(F)ccc5F)C4)C[C@@H]3C(=O)O)c2c1 (stereo partly drawn) [Example 210, (3R,4R)-4-[3-(3-chloro-6-methoxyquinolin-4-yl)-3-hydroxypropyl]-1-[3-(2,5-difluorophenyl)cyclobutyl]piperidine-3-carboxylic acid]
 |  |  |  |  | <0.0625 µg/mL | <0.0625 µg/mL | 0.250 µg/mL (≈ 0.491 µM) | <0.0625 µg/mL | <0.0625 µg/mL | COc1ccc2ncc(Cl)c(C(O)CC[C@@H]3CCN(C4CC(c5ccccc5)C4)C[C@@H]3C(=O)O)c2c1 (stereo partly drawn) [Example 211, (3R,4R)-4-[3-(3-chloro-6-methoxyquinolin-4-yl)-3-hydroxypropyl]-1-(3-phenylcyclobutyl)piperidine-3-carboxylic acid]
 |  |  |  |  | <0.0625 µg/mL | <0.0625 µg/mL | 2.00 µg/mL (≈ 3.93 µM) | <0.0625 µg/mL | <0.0625 µg/mL | COc1ccc2ncc(Cl)c(C(O)CC[C@@H]3CCN(C4CC(c5ccccc5)C4)C[C@@H]3C(=O)O)c2c1 (stereo partly drawn) [Example 212, (3R,4R)-4-[3-(3-chloro-6-methoxyquinolin-4-yl)-3-hydroxypropyl]-1-(3-phenylcyclobutyl)piperidine-3-carboxylic acid]
 |  |  |  |  | <0.0625 µg/mL | <0.0625 µg/mL | 0.500 µg/mL (≈ 0.917 µM) | <0.0625 µg/mL | <0.0625 µg/mL | COc1ccc2ncc(Cl)c(C(O)CC[C@@H]3CCN(C4CC(c5c(F)cccc5F)C4)C[C@@H]3C(=O)O)c2c1 (stereo partly drawn) [Example 213, (3R,4R)-4-[3-(3-chloro-6-methoxyquinolin-4-yl)-3-hydroxypropyl]-1-[3-(2,6-difluorophenyl)cyclobutyl]piperidine-3-carboxylic acid]
 |  |  |  |  | <0.0625 µg/mL | <0.0625 µg/mL | 2.00 µg/mL (≈ 3.67 µM) | <0.0625 µg/mL | <0.0625 µg/mL | COc1ccc2ncc(Cl)c(C(O)CC[C@@H]3CCN(C4CC(c5c(F)cccc5F)C4)C[C@@H]3C(=O)O)c2c1 (stereo partly drawn) [Example 214, (3R,4R)-4-[3-(3-chloro-6-methoxyquinolin-4-yl)-3-hydroxypropyl]-1-[3-(2,6-difluorophenyl)cyclobutyl]piperidine-3-carboxylic acid]
< 0.0625 µg/mL | < 0.0625 µg/mL | 1 µg/mL (≈ 1.89 µM) | < 0.0625 µg/mL | < 0.0625 µg/mL |  |  |  |  |  | COc1ccc2ncc(F)c(C(O)CC[C@@H]3CCN([C@H]4C[C@H](c5c(F)cccc5F)C4)C[C@@H]3C(=O)O)c2c1 (stereo partly drawn) [Example 215, (3R,4R)-1-[trans-3-(2,6-difluorophenyl)cyclobutyl]-4-[3-(3-fluoro-6-methoxyquinolin-4-yl)-3-hydroxypropyl] piperidine-3-carboxylic acid]
16 µg/mL (≈ 30.9 µM) | > 64 µg/mL | 64 µg/mL (≈ 124 µM) | 32 µg/mL (≈ 61.8 µM) | 8 µg/mL (≈ 15.5 µM) |  |  |  |  |  | COc1ccc2nccc([C@@H](O)CC[C@@H]3CCN(C4CC(c5ccc(F)c(C#N)c5)C4)C[C@@H]3C(=O)O)c2c1 (stereo partly drawn) [Example 216, (3R,4R)-1-[3-(3-cyano-4-fluorophenyl)cyclobutyl]-4-[(3S)-3-hydroxy-3-(6-methoxyquinolin-4-yl)propyl] piperidine-3-carboxylic acid]
 |  |  |  |  | 0.0600 µg/mL (≈ 0.113 µM) | 0.125 µg/mL (≈ 0.236 µM) | 2.00 µg/mL (≈ 3.78 µM) | 0.0600 µg/mL (≈ 0.113 µM) | 0.125 µg/mL (≈ 0.236 µM) | COc1ccc2ncc(F)c(C(O)CC[C@@H]3CCN(C4CC(c5cc(F)ccc5F)C4)C[C@@H]3C(=O)O)c2n1 (stereo partly drawn) [Example 217, (3R,4R)-1-[3-(2,5-difluorophenyl)cyclobutyl]-4-[3-(3-fluoro-6-methoxy-1,5-naphthyridin-4-yl)-3-hydroxypropyl]piperidine-3-carboxylic acid]
 |  |  |  |  | <0.0625 µg/mL | 0.125 µg/mL (≈ 0.236 µM) | 2.00 µg/mL (≈ 3.78 µM) | <0.0625 µg/mL | <0.0625 µg/mL | COc1ccc2ncc(F)c(C(O)CC[C@@H]3CCN(C4CC(c5cc(F)ccc5F)C4)C[C@@H]3C(=O)O)c2n1 (stereo partly drawn) [Example 218, (3R,4R)-1-[3-(2,5-difluorophenyl)cyclobutyl]-4-[3-(3-fluoro-6-methoxy-1,5-naphthyridin-4-yl)-3-hydroxypropyl]piperidine-3-carboxylic acid]

SMILES | MIC (Staph aureus 1146 [1]) | MIC (Staph aureus 1095 MRSA) | MIC (Staph aureus 1146 [2]) | MIC (Staph aureus 2812) | MIC (Staph aureus 2811) | MIC, column B (Staph aureus 1146 [1]) | MIC, column A (Staph aureus 1095 MRSA) | MIC, column C (Staph aureus 1146 [2]) | MIC, column E (Staph aureus 2812) | MIC, column D (Staph aureus 2811)
COc1ccc2nccc([C@@H](O)CC[C@@H]3CCN(C4CC(c5cccc(OC)c5F)C4)C[C@@H]3C(=O)O)c2c1 (stereo partly drawn) [Example 208, (3R,4R)-1-[3-(2-fluoro-3-methoxyphenyl)cyclobutyl]-4-[(3S)-3-hydroxy-3-(6-methoxyquinolin-4-yl)propyl]piperidine-3-carboxylic acid] | 32 µg/mL (≈ 61.2 µM) | 64 µg/mL (≈ 122 µM) | > 64 µg/mL | 64 µg/mL (≈ 122 µM) | 32 µg/mL (≈ 61.2 µM) |  |  |  |  | 
COc1ccc(C2CC(N3CC[C@@H](CC[C@H](O)c4ccnc5ccc(OC)cc45)[C@@H](C(=O)O)C3)C2)c(F)c1 (stereo partly drawn) [Example 220, (3R,4R)-1-[3-(2-fluoro-4-methoxyphenyl)cyclobutyl]-4-[(3S)-3-hydroxy-3-(6-methoxyquinolin-4-yl)propyl]piperidine-3-carboxylic acid] | 32 µg/mL (≈ 61.2 µM) | 64 µg/mL (≈ 122 µM) | > 64 µg/mL | 32 µg/mL (≈ 61.2 µM) | 16 µg/mL (≈ 30.6 µM) |  |  |  |  | 
COc1ccc2ncc(F)c([C@@H](O)CC[C@@H]3CCN(C4CC(c5cc(F)cc(F)c5)C4)C[C@@H]3C(=O)O)c2c1 (stereo partly drawn) [Example 221, (3R,4R)-1-[3-(3,5-difluorophenyl)cyclobutyl]-4-[(3S)-3-(3-fluoro-6-methoxyquinolin-4-yl)-3-hydroxypropyl] piperidine-3-carboxylic acid] | 0.25 µg/mL (≈ 0.473 µM) | 1 µg/mL (≈ 1.89 µM) | 4 µg/mL (≈ 7.57 µM) | 0.25 µg/mL (≈ 0.473 µM) | 0.25 µg/mL (≈ 0.473 µM) |  |  |  |  | 
